Laboratory results as given in US12521395B2, “Gem-disubstituted heterocyclic compounds and their use as IDH inhibitors” (NERVIANO MEDICAL SCIENCES S.R.L., priority 2019, dated 2026).

Columns and labels:
[1] = system: cell lines HT-1080 (IDH1^R132C); assay: Cellular assay: inhibition of 2HG production, LC-MS/MS; assay type: cell-based; conditions: Homo sapiens, 72 hr incubation, 2-HG in cell culture media, read-out: HT1080 2-HG IC50
Protocol: Cell lines HT-1080 (commercially available) are maintained in E-MEM 10% FCS and incubated at 37° C. in a humidified 5% CO2 atmosphere.
Cells are seeded into 96 well black flat bottom plates at a density of 500 cells/well in 100 μL complete medium. After 24 hr the medium is replaced with 200 μL of fresh medium and compounds (dissolved into DMSO) are administrated to the cells using D300E Digital Dispenser (Tecan).
After 72 hr of incubation 100 μL from each well are collected and used for 2HG (R(−)-2-hydroxyglutarate) quantification. Levels of 2-HG in cell culture media are determined by LC-MS/MS. Cell supernatants (100 μL/well) are treated with 1 M aqueous trichloroacetic acid containing 130 μM of the internal standard 2-HG-d3 (20 μL/well) in a 96-well plate. The plates are sealed, mildly vortexed for 60 minutes, centrifuged at 4,000 RPM for 15 minutes, placed in a refrigerated autosampler taking care not to shake them, and aliquots of the upper part of the samples are directly injected in the chromatographic system. Calibration standards are obtained by ten folds dilution of aqueous 2-HG stock solutions with blank cell culture medium and denatured exactly in the same way as described above for samples. Samples and standards are assayed for 2-HG by reversed phase chromatography on a C18 column eluted with aqueous 0.15% formic acid and briefly washed with 90% methanol at the end of the run. 2-HG is determined by negative ion electrospray ionization with the internal standard method on a triple quadrupole mass spectrometer monitoring the MRM transitions 147>129 (2-HG) and 150>132 (2-HG-d3).
2-HG inhibition was calculated by comparing treated versus control data using Assay Explore (Symyx) software, with IC50 determined using a sigmoidal fitting algorithm.

IDH1^R132H = IDH1^R132H (Homo sapiens, UniProt O75874, R132H); assay: NADPH depletion assay (diaphorase/resazurin), IDH1 R132H; assay type: biochemical; conditions: 15 min preincubation, 60 min reaction, room temperature
Protocol: (§1) IDH mutated enzyme activity converting alpha-ketoglutarate to 2-hydroxyglutaric acid is measured using a NADPH depletion assay. In the assay the remaining cofactor is measured at the end of the reaction with the addition of a catalytic excess of diaphorase and resazurin, to generate a fluorescent signal in proportion to the amount of NADPH remaining. IDH1 WT enzyme as well as mutated isoforms IDH1^R132H, IDH1^R132C, and IDH2^R172K enzymes are commercially available proteins (see e.g. Sino Biological, Abcam, Active Motif or Creative BioMart).
(§2) IDH1^R132H homodimer enzyme are diluted to 8 nM, in 10 μL of Assay Buffer (150 mM NaCl, 50 mM Tris-HCl pH 7.6, 10 mM MgCl2, 0.001% Triton X-100, 4 mM β-mercaptoethanol); 0.2 μL of test compound, previously serially diluted 1 to 3, >10 experimental points from 1 mM in DMSO, is added and the mixture is incubated for 15 minutes at room temperature. The reaction is started with the addition of 10 μL of Substrate Mix (12 μM NADPH, 3.4 mM alpha-ketoglutarate in Assay Buffer) and the mixture is incubated for 60 minutes at room temperature. The reaction is terminated with the addition of 5 μl of Detection Buffer (100 μg/mL diaphorase, 30 μM resazurin, in IX Assay Buffer), and is incubated for 15 minutes before reading on a ViewLux as platereader at Ex544/Em590.

IDH1^R132C = IDH1^R132C (Homo sapiens, UniProt O75874, R132C); assay: NADPH depletion assay (diaphorase/resazurin), IDH1 R132C; assay type: biochemical; conditions: IDH1^R132C 2 nM, alpha-ketoglutarate 0.14 mM; read-out: IDH1^R132C IC50
Protocol: as §1, §2
Compounds are assayed for their activity against IDH1^R132C following the same assay as above with the following modifications: IDH1^R132C and alpha-ketoglutarate final concentrations in the Assay Buffer is 2 nM and 0.14 mM, respectively.

IDH2^R172K = molecular target: T1, IDH2^R172K (Homo sapiens, UniProt P48735, R172K); assay: NADPH depletion assay (diaphorase/resazurin), IDH2 R172K; assay type: biochemical; conditions: IDH2^R172K 16 nM, alpha-ketoglutarate 0.55 mM
T1 sequence (P48735 40-452 R172K): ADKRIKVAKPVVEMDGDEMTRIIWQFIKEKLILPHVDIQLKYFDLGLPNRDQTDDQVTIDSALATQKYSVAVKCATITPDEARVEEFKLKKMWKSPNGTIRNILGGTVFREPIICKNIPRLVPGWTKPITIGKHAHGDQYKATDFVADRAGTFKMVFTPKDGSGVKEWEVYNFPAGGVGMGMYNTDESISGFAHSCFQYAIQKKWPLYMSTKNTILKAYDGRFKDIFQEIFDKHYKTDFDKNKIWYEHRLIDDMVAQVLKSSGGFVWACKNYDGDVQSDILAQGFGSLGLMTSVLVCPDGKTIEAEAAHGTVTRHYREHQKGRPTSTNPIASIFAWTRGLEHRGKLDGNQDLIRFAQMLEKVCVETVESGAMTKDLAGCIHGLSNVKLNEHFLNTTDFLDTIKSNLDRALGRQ
Protocol: as §1, §2
Compounds are assayed for their activity against IDH2^R172K following the same assay as above with the following modifications: IDH2^R172K and alpha-ketoglutarate final concentrations in the Assay Buffer is 16 nM and 0.55 mM, respectively.

IDH1 wild type enzyme = IDH1 wild type enzyme (Homo sapiens, UniProt O75874); assay: Enzymatic assay for IDH1 wild-type (NADPH forming assay); assay type: biochemical; conditions: 0.016 nM IDH1WT, 15 min preincubation
Protocol: IDH1WT enzymatic activity converting isocitric acid to alpha-ketoglutarate is measured using a NADPH forming assay. In the assay the forming cofactor is measured in continuous with the addition of a catalytic excess of diaphorase and resazurin, to generate a fluorescent signal in proportion to the amount of NADPH forming.
Compounds were preincubated with the enzyme, then the reaction was started by the addition of NADP+, isocitrate, diaphorase and a corresponding substrate, resazurin. Diaphorase reduces resazurin to the highly fluorescent resorufin with the concomitant oxidation of NADPH to NADP. Specifically, 0.2 μL of test compound, previously serially diluted 1 to 3, >10 experimental points from 1 mM in DMSO, was added to 0.016 nM IDH1WT enzyme in 10 μL of Assay Buffer (150 mM NaCl, 50 mM Tris-HCl pH 7.6, 10 mM MgCl2, 0.001% Triton X-100, 4 mM β-mercaptoethanol); the mixture is incubated for 15 minutes at room temperature. The reaction is started with the addition of 10 μL of Substrate Mix (400 μM NADP^+, 40 μM iso-citrate, 5 ugr/mL Diaphorase and 7 μM resazurin in Assay Buffer), the mixture is incubated at room temperature and the reaction is reading on a ViewLux as platereader at Ex544/Em590 in continuous.

Sequence of IDH1^R132C (O75874 whole entry R132C): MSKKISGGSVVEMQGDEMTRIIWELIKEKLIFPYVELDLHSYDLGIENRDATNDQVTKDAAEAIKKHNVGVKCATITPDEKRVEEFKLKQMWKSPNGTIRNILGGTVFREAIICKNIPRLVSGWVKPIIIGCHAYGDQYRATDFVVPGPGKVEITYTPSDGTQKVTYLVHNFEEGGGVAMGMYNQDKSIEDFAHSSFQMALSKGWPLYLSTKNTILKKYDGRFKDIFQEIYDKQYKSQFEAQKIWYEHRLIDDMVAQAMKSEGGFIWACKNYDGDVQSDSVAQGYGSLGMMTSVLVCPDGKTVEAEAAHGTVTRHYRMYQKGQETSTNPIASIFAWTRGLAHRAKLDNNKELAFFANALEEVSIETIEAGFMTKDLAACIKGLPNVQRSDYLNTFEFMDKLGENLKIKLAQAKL
Sequence of IDH1 wild type enzyme (O75874 whole entry): as the sequence (O75874 whole entry R132C) above, with C132R counted along it
Sequence of IDH1^R132H (O75874 whole entry R132H, canonical isoform): as the sequence (O75874 whole entry R132C) above, with C132H counted along it

| SMILES | IC50 [1] | IC50 (IDH1^R132H) | IC50 (IDH1^R132C) | IC50 (IDH2^R172K) | IC50 (IDH1 wild type enzyme) |
| --- | --- | --- | --- | --- | --- |
| C=CC(=O)N1CCN(C2(c3ccc([C@H](C)Nc4ncc5ccc(=O)n(C(C)C)c5n4)cc3)CCOCC2)CC1 [cpd 1, 2-{[(1S)-1-{4-[4-(4-acryloylpiperazin-1-yl)tetrahydro-2H-pyran-4-yl]phenyl}ethyl]amino}-8-(propan-2-yl)pyrido[2,3-d]pyrimidin-7(8H)-one] | 2.4 nM | 3.5 nM | 3.3 nM | 111 nM | 133 nM |
| C=CC(=O)N1CCN(C(CC)(CC)c2ccc([C@H](C)Nc3ncc4ccc(=O)n(C(C)C)c4n3)cc2)CC1 [cpd 4, 2-{[(1S)-1-{4-[3-(4-acryloylpiperazin-1-yl)pentan-3-yl]phenyl}ethyl]amino}-8-(propan-2-yl)pyrido[2,3-d]pyrimidin-7(8H)-one] | 0.6 nM | 3.8 nM | 1.7 nM | 22.8 nM | 313 nM |
| C=CC(=O)N1CCN(C2(c3ccc([C@H](C)Nc4cc5c(ccc(=O)n5C(C)C)cn4)cc3)CCOCC2)CC1 [cpd 11, 7-{[(1S)-1-{4-[4-(4-acryloylpiperazin-1-yl)tetrahydro-2H-pyran-4-yl]phenyl}ethyl]amino}-1-(propan-2-yl)-1,6-naphthyridin-2(1H)-one] | 2.6 nM | 6.4 nM | 4.8 nM | 291 nM | 364 nM |
| C=CC(=O)N1CCN(C2(c3ccc([C@H](C)Nc4ncc5ccc(=O)n(C(C)C)c5n4)cc3)CCC(F)(F)CC2)CC1 [cpd 26, 2-{[(1S)-1-{4-[1-(4-acryloylpiperazin-1-yl)-4,4-difluorocyclohexyl]phenyl}ethyl]amino}-8-(propan-2-yl)pyrido[2,3-d]pyrimidin-7(8H)-one] | 0.5 nM | 3 nM | 2 nM | 126 nM | 126 nM |
| C=CC(=O)N1CCN(C2(c3ccc(C(C)(C)Nc4ncc5ccc(=O)n(C(C)C)c5n4)cc3)CCOCC2)CC1 [cpd 40, 2-[(2-{4-[4-(4-acryloylpiperazin-1-yl)tetrahydro-2H-pyran-4-yl]phenyl}propan-2-yl)amino]-8-(propan-2-yl)pyrido[2,3-d]pyrimidin-7(8H)-one] | 14.8 nM |  | 18 nM |  |  |
| C=CC(=O)N1CCN([C@@](C)(CN2CCOCC2)c2ccc([C@H](C)Nc3ncc4ccc(=O)n(C(C)C)c4n3)cc2)CC1 [cpd 43, 2-{[(1S)-1-{4-[(2R)-2-(4-acryloylpiperazin-1-yl)-1-(morpholin-4-yl)propan-2-yl]phenyl}ethyl]amino}-8-(propan-2-yl) pyrido[2,3-d]pyrimidin-7(8H)-one] | 3 nM |  | 15 nM |  |  |
| C=CC(=O)N1CCN(C2(c3ccc([C@H](C)Nc4cc5c(cn4)COC(=O)N5CC)cc3)CCOCC2)CC1 [cpd 44, 7-{[(1S)-1-{4-[4-(4-acryloylpiperazin-1-yl)tetrahydro-2H-pyran-4-yl]phenyl}ethyl]amino}-1-ethyl-1,4-dihydro-2H-pyrido[4,3-d][1,3]oxazin-2-one] | 4 nM |  | 9 nM |  |  |
| C=CC(=O)N1CCN(C2(c3ccc([C@H](C)Nc4cc5c(ccc(=O)n5C(C)C)cn4)cc3)CCC(F)(F)CC2)CC1 [cpd 47, 7-{[(1S)-1-{4-[1-(4-acryloylpiperazin-1-yl)-4,4-difluorocyclohexyl]phenyl}ethyl]amino}-1-(propan-2-yl)-1,6-naphthyridin-2(1H)-one] | 0.6 nM | 2 nM | 1 nM | 97 nM | 97.4 nM |
| C=CC(=O)N1CC(N(C)C2(c3ccc([C@H](C)Nc4cc5c(ccc(=O)n5C(C)C)cn4)cc3)CCOCC2)C1 [cpd 48, 7-{[(1S)-1-(4-{4-[(1-acryloylazetidin-3-yl)(methyl)amino]tetrahydro-2H-pyran-4-yl}phenyl)ethyl]amino}-1-(propan-2-yl)-1,6-naphthyridin-2(1H)-one] | 65 nM |  | 47 nM |  |  |
| C=CC(=O)N1CCN(C2(c3ccc(C4(Nc5ncc6ccc(=O)n(C(C)C)c6n5)CC4)cc3)CCCC2)CC1 [cpd 49, 2-[(1-{4-[1-(4-acryloylpiperazin-1-yl)cyclopentyl]phenyl}cyclopropyl)amino]-8-(propan-2-yl)pyrido[2,3-d]pyrimidin-7(8H)-one] | 3 nM |  | 17 nM |  |  |
| C=CC(=O)N1CC(N(C)C2(c3ccc([C@H](C)Nc4ncc5ccc(=O)n(C(C)C)c5n4)cc3)CCC(F)(F)CC2)C1 [cpd 50, 2-{[(1S)-1-(4-{1-[(1-acryloylazetidin-3-yl)(methyl)amino]-4,4-difluorocyclohexyl}phenyl)ethyl]amino}-8-(propan-2-yl) pyrido[2,3-d]pyrimidin-7(8H)-one] | 10 nM | 20 nM | 5 nM | 516 nM | 516 nM |
| [2H]C([2H])=C([2H])C(=O)N1CCN(C2(c3ccc([C@H](C)Nc4ncc5ccc(=O)n(C(C)C)c5n4)cc3)CCOCC2)CC1 [cpd 51, 8-(propan-2-yl)-2-({(1S)-1-[4-(4-{4-[(^2H3)prop-2-enoyl]piperazin-1-yl}tetrahydro-2H-pyran-4-yl)phenyl]ethyl}amino) pyrido[2,3-d]pyrimidin-7(8H)-one] | 2.4 nM |  | 7 nM |  |  |
| CC(C)n1c(=O)ccc2cnc(N[C@@H](C)c3ccc(C4(N(C)C5CN(C(=O)C(F)Cl)C5)CCC(F)(F)CC4)cc3)nc21 (stereo partly drawn) [cpd 53, 2-{[(1S)-1-(4-{1-[{1-[chloro(fluoro)acetyl]azetidin-3-yl}(methyl)amino]-4,4-difluorocyclohexyl}phenyl)ethyl]amino}-8-(propan-2-yl)pyrido[2,3-d]pyrimidin-7(8H)-one] | 40 nM |  | 28 nM |  |  |
